Laboratory results published in ChEMBL document CHEMBL1201862, “PubChem BioAssay data set” (2004).
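Assay format: 96-well plates, 48-hour exposure. GI50 = concentration required for 50% inhibition of growth.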 Calls of active or inactive are those of the source. Rule as the data show it: active = GI50 up to about 1.1 µM and inactive = higher.

Legend:
Experiment in all cases: DTP human tumour cell line panel, 48 h
[1] = system: HT-29
[2] = system: SF-295
[3] = system: M14
[4] = system: SF-539
[5] = system: SK-MEL-5
[6] = system: T47D
[7] = system: OVCAR-5
[8] = system: UACC-62
[9] = system: SNB-19
[10] = system: UACC-257
[11] = system: KM12
[12] = system: TK-10
[13] = system: CCRF-CEM
[14] = system: IGROV-1
[15] = system: MDA-MB-231
[16] = system: RXF 393
[17] = system: NCI-H522
[18] = system: SNB-75
[19] = system: SF-268

Measured: GI50

Cc1cccc(NC(=O)c2cccc([N+](=O)[O-])c2O)c1C
inactive: [1] 27.7 µM | [2] 24.4 µM | [3] 41.5 µM | [4] 27.5 µM | [5] 9.62 µM | [6] 24.9 µM | [7] 30.6 µM | [8] 28 µM | [9] 18.7 µM | [10] 24.9 µM | [11] 23.6 µM | [12] 53.6 µM | [13] 14.9 µM | [14] 26.7 µM | [15] 37.9 µM | [16] 12.6 µM | [17] 16.8 µM | [18] 22.8 µM | [19] 33.2 µM

Cc1cn(Cc2ccccc2CCl)c(=O)[nH]c1=O
inactive: [1] 15.4 µM | [2] 13.8 µM | [3] 12.9 µM | [4] 5.56 µM | [5] 7.4 µM | [6] 11.5 µM | [7] 23.3 µM | [8] 4.68 µM | [9] 12.3 µM | [10] 13.4 µM | [11] 12.9 µM | [12] 15.3 µM | [13] 4.58 µM | [14] 3.46 µM | [16] 8 µM | [17] 6.34 µM | [18] 14.6 µM | [19] 13 µM

CCOC(=O)C1=C(C)NC(=O)NC1c1coc2cc(C)cc(C)c2c1=O (centres undefined)
inactive: [1] 32.1 µM | [2] 47.6 µM | [3] 34.7 µM | [4] 75.9 µM | [5] > 51.2 µM | [6] > 69.5 µM | [7] 49 µM | [8] 61.5 µM | [9] 90.2 µM | [10] 40.2 µM | [11] 30 µM | [12] 38.9 µM | [13] 37.7 µM | [14] > 60.1 µM | [15] > 61.5 µM | [16] 25.4 µM | [17] 1.68 µM | [18] 3.27 µM | [19] 57.5 µM

COc1c(C)c2c(c3c1c(=O)c1ccccc1n3C)C=CC(C)(C)O2
inactive: [1] 14 µM | [2] 17.9 µM | [3] 15.5 µM | [4] 19.3 µM | [5] 15.3 µM | [7] 29.2 µM | [8] 14.4 µM | [9] 41.3 µM | [10] 28.9 µM | [11] 17.9 µM | [12] 48.3 µM | [13] 21.4 µM | [14] 30.3 µM | [16] 51.5 µM | [17] 20.9 µM | [18] 20.4 µM | [19] 26.4 µM

CC1(c2cccc3c2C2(O)C=CC4(CCC32)OCCO4)OCCO1 (centres undefined)
inactive: [1] > 100 µM | [2] > 100 µM | [3] > 100 µM | [4] > 100 µM | [5] > 100 µM | [7] > 100 µM | [8] > 100 µM | [9] > 100 µM | [10] > 100 µM | [11] > 100 µM | [12] > 100 µM | [13] > 100 µM | [14] > 100 µM | [16] > 100 µM | [17] > 100 µM | [18] > 100 µM | [19] > 100 µM

Cc1cccc(C2=NC(C)(C)C(C)(C)N=C2c2cccc(C)n2)n1
inactive: [1] 26.1 µM | [2] > 100 µM | [3] 71.6 µM | [4] > 100 µM | [5] > 100 µM | [7] > 100 µM | [8] > 100 µM | [9] > 100 µM | [10] 45.4 µM | [11] > 100 µM | [12] > 100 µM | [13] 71 µM | [14] 38.5 µM | [16] > 100 µM | [17] > 100 µM | [18] > 100 µM | [19] > 100 µM

COc1ccc2c(c1)CC1c3c(ccc(OC)c3O)CC2N1C (centres undefined)
inactive: [1] 22.9 µM | [2] 22.8 µM | [3] 16.5 µM | [4] 24.7 µM | [5] 18.1 µM | [7] 54.5 µM | [8] 47.4 µM | [9] 47.6 µM | [10] 23.1 µM | [11] 28.2 µM | [12] 64.4 µM | [13] 23.3 µM | [14] 44.1 µM | [16] 22.6 µM | [17] 19.7 µM | [18] 38.3 µM | [19] 54.2 µM

O=C(O)CCC(=O)OCN1C(=O)C2C3C=CC(C2C1=O)C1C2C(=O)N(COC(=O)CCC(=O)O)C(=O)C2C31 (centres undefined)
inactive: [1] > 100 µM | [2] > 100 µM | [3] > 100 µM | [4] > 100 µM | [5] > 100 µM | [7] > 100 µM | [8] > 100 µM | [9] > 100 µM | [10] > 100 µM | [11] 97.5 µM | [12] > 100 µM | [13] 34 µM | [14] > 100 µM | [16] > 100 µM | [17] > 47 µM | [18] > 95.7 µM | [19] > 78.9 µM

O=C(CCc1cc(-c2ccc(F)cc2)n[nH]1)N(Cc1ccccc1)Cc1ccccc1
inactive: [1] > 100 µM | [2] > 100 µM | [3] > 100 µM | [4] > 100 µM | [5] > 100 µM | [7] > 100 µM | [8] > 100 µM | [9] > 100 µM | [10] > 100 µM | [11] > 100 µM | [12] > 100 µM | [13] > 100 µM | [14] > 100 µM | [16] > 100 µM | [17] > 100 µM | [18] > 100 µM | [19] > 100 µM

N#C[C@](CO)(NC(=O)OCc1ccccc1)C(F)F
inactive: [1] > 100 µM | [2] > 100 µM | [3] > 100 µM | [5] > 100 µM | [6] > 100 µM | [7] > 100 µM | [8] > 100 µM | [9] > 100 µM | [10] > 100 µM | [11] > 100 µM | [12] > 100 µM | [13] > 100 µM | [14] > 100 µM | [15] > 100 µM | [16] > 100 µM | [17] > 100 µM | [18] > 100 µM | [19] > 100 µM

COC1=C(C(=O)OC(C)(C)C)C23CCCCC2(C(C(=O)OC(C)(C)C)=C(OC)C3C(=O)OC(C)(C)C)C1C(=O)OC(C)(C)C (centres undefined)
inactive: [1] 18.5 µM | [2] 4.78 µM | [3] 7.89 µM | [4] 48.3 µM | [5] 12.4 µM | [7] > 100 µM | [8] 54.8 µM | [9] > 100 µM | [10] 6.1 µM | [11] 34 µM | [12] > 100 µM | [13] 27.9 µM | [14] 49.2 µM | [16] 27.6 µM | [17] 11.6 µM | [18] 84.5 µM | [19] > 100 µM

CCC(/C(=N\Nc1c(Cl)cc(Cl)cc1Cl)c1ccccc1)n1ccnc1C (centres undefined)
inactive: [1] 8.05 µM | [2] 11.5 µM | [3] 13.3 µM | [4] 16.2 µM | [5] 7.91 µM | [7] 9.04 µM | [8] 17.5 µM | [9] 14.4 µM | [10] 14.5 µM | [11] 10.4 µM | [12] 14.3 µM | [13] 13 µM | [14] 11 µM | [16] > 10 µM | [17] 4.55 µM | [18] 14.6 µM | [19] 17.2 µM

CCOC(=O)c1cc(=O)n(C)c(=O)n1C
inactive: [1] > 100 µM | [2] > 100 µM | [3] > 100 µM | [4] > 100 µM | [5] > 100 µM | [7] > 100 µM | [8] > 100 µM | [9] > 100 µM | [10] > 100 µM | [11] > 100 µM | [12] > 100 µM | [13] > 100 µM | [14] > 100 µM | [16] > 100 µM | [17] > 100 µM | [18] > 100 µM | [19] > 100 µM

CCCCCCCCCCCCCP(=O)(O)O
inactive: [1] > 100 µM | [2] > 100 µM | [3] > 100 µM | [4] > 100 µM | [5] > 100 µM | [7] > 100 µM | [8] > 100 µM | [9] 67.1 µM | [10] > 100 µM | [11] > 100 µM | [12] > 100 µM | [13] > 100 µM | [14] > 100 µM | [16] 35.5 µM | [17] > 100 µM | [18] 23.2 µM | [19] > 100 µM

CCOC(=O)C1N(S(=O)(=O)c2ccc(C)cc2)CCC12C(c1ccc(OC)c(OC)c1)=Nc1ccccc12 (centres undefined)
inactive: [1] > 100 µM | [2] > 100 µM | [3] > 100 µM | [4] > 100 µM | [5] > 100 µM | [7] > 100 µM | [8] > 100 µM | [9] > 100 µM | [10] > 100 µM | [11] > 100 µM | [12] > 100 µM | [13] > 100 µM | [14] > 100 µM | [16] 49.3 µM | [17] > 100 µM | [18] 35.5 µM | [19] 47.8 µM

COC(=O)CC[N+]1([O-])CC1
inactive: [1] > 100 µM | [2] > 100 µM | [3] > 100 µM | [4] > 100 µM | [5] > 100 µM | [6] > 100 µM | [7] > 100 µM | [8] > 100 µM | [9] > 100 µM | [10] > 100 µM | [11] > 100 µM | [12] > 100 µM | [13] > 100 µM | [14] > 100 µM | [15] > 100 µM | [16] > 100 µM | [18] > 100 µM | [19] > 100 µM
